pIC50: −log10 of the molar value. Structures can show the parent of a compound that is named as a salt.
Tests used:
Assay type in all cases: cell-based
[1] = tested on: VEGF non-dependent human umbilical vein endothelial cells (HUVEC); test: Cell growth inhibition test, VEGF non-dependent HUVEC; settings: 72 hours, WST-1, read-out: HUVEC (VEGF Nondependence), 50% Growth Inhibition Concentration (IC50 value)
Protocol: (§1) Cell Growth Inhibition Test
(§2) With respect to the compounds relating to the present invention and the known compound (BAY 43-9006), cell growth inhibition activity was measured.
(§3) A sample compound was in-series diluted with dimethyl sulfoxide, and then was 1/50 diluted with a Ca^2+- and Mg^2+-free phosphate-bufferized physiological saline and its 20 μL was poured to a 96-well plate. […] Each of these cell suspensions was dividedly poured to the sample added plate in 180 μL/well and cultured in a 5% carbon dioxide incubator at 37° C. After 72 hours, 20 μL of WST-(HCT 116, a product of Dojin) or WST-1 (HUVEC, a product of Roche diagnostics) was added thereto to each well and the absorbance at 450 nm (reference wavelength: 650 nm) was measured. From the growth inhibition ratio of addition of the sample compound to no-addition of the sample compound as a reference, the 50% growth inhibition IC50) of the sample compound was calculated.
(§4) With respect to the group of representative compounds of the present invention, the IC50 values of HCT 116 and HUVEC (VEGF nondependent growth and VEGF dependent growth) are shown in Tables 5-1 to 5-3.

VEGF dependent HUVEC = test: Cell growth inhibition test, VEGF dependent HUVEC; settings: Homo sapiens, 20 ng/mL of VEGF, 72 hours, WST-1, read-out: HUVEC (VEGF Dependence), 50% Growth Inhibition Concentration (IC50 value)
Protocol: as §1, §2, §3, §4

[2] = tested on: human colorectal cancer cell strain HCT 116; test: Cell growth inhibition test, HCT 116; settings: 72 hours, read-out: HCT116, 50% Growth Inhibition Concentration (IC50 value)
Protocol: as §1, §2, §3, §4

Row | Compound | pIC50 [2] | pIC50 [1] | pIC50 (VEGF dependent HUVEC)
1 | CNc1ncnc2c1ncn2-c1ccc(NC(=O)Nc2cccc(C(F)(F)F)c2)cc1 [Table 2, Compound 19, 1-[4-(6-(Methylamino)purin-9-yl)phenyl]-3-(3-(trifluoro-methyl)phenyl)urea] | 5.96 | 5.72 | 7.24
2 | CNc1ncnc2c1ncn2-c1ccc(NC(=O)Nc2cc(N(C)C)cc(C(F)(F)F)c2)cc1 [Table 2, Compound 48, 1-(3-Dimethylamino-5-(trifluoromethyl)phenyl)-3-[4-(6-(methylamino)purin-9-yl)phenyl]urea] | 5.62 | 5.43 | 6.55
3 | O=C(Nc1ccc(-n2cnc3cnccc32)cc1)Nc1ccc(Cl)c(C(F)(F)F)c1 [Table 1, Compound 1, 1-(4-chloro-3-(trifluoromethyl)phenyl)-3-(4-imidazo[4,5-c]pyridin-1-ylphenyl)urea] | 5.92 | 5.68 | 7.04
4 | CNc1ncnc2c1ncn2-c1ccc(NC(=O)Nc2ccc(OCCN3CCOCC3)c(C(F)(F)F)c2)cc1 [Table 2, Compound 53, 1-[4-(6-(Methylamino)purin-9-yl)phenyl]-3-[4-(2-morpholin-4-yl-ethoxy)-3-(trifluoromethyl)phenyl]urea] | 5.72 | 5.77 | 6.19
5 | CNc1ncnc2c1ncn2-c1ccc(NC(=O)Nc2cc(CCCN3CCOCC3)cc(C(F)(F)F)c2)cc1 [Table 3, Compound 48, 1-[4-(6-(Methylamino)purin-9-yl)phenyl]-3-[3-(3-morpholin-4-yl-propyl)-5-(trifluoromethyl)phenyl]-urea] | 5.60 | 5.49 | 7.41
6 | Nc1ncnc2c1ncn2-c1ccc(NC(=O)Nc2cc(Br)cc(C(F)(F)F)c2)cc1 [Table 2, Compound 43] | 5.74 | 5.42 | 6.82
7 | CN1CCN(Cc2ccc(NC(=O)Nc3ccc(-n4cnc5cnccc54)cc3)cc2C(F)(F)F)CC1 [Table 3, Compound 18, 1-(4-Imidazo[4,5-c]pyridin-1-yl-phenyl)-3-[4-(4-methyl-piperazin-1-ylmethyl)-3-(trifluoromethyl)phenyl]urea] | 5.57 | 5.51 | 7.59
8 | Nc1ncnc2c1ncn2-c1ccc(N(O)C(=O)Nc2ccc(Cl)c(C(F)(F)F)c2)cc1 [Table 1, Compound 49, 1-[4-(6-Aminopurin-9-yl)phenyl]-3-(4-chloro-3-(trifluoromethyl)phenyl)-1-hydroxyurea hydrochloride] | 5.14 | 5.39 | 6.72

Continued, in another order:

Row | pIC50 [2] | Compound | pIC50 [1] | pIC50 (VEGF dependent HUVEC)
9 | 5.74 | CNc1ncnc2c1ncn2-c1ccc(NC(=O)Nc2ccc(N(C)C)c(C(F)(F)F)c2)cc1 [Table 2, Compound 42, 1-(4-Dimethylamino-3-(trifluoromethyl)phenyl)-3-[4-(6-(methylamino)purin-9-yl)phenyl]urea] | 5.40 | 7.25
10 | 6.05 | CNc1ncnc2c1ncn2-c1ccc(NC(=O)Nc2ccc(CN3CCOCC3)c(C(F)(F)F)c2)cc1 [Table 2, Compound 47, 1-[4-(6-(Methylamino)purin-9-yl)phenyl]-3-(4-morpholin-4-ylmethyl-3-(trifluoromethyl)phenyl)urea] | 6.15 | 7.54
11 | 5.92 | CNc1ncnc2c1ncn2-c1ccc(NC(=O)Nc2ccc(CCCN(C)C)c(C(F)(F)F)c2)cc1 [Table 2, Compound 74] | 6.05 | 7.08
12 | 6.70 | CNc1ncnc2c1ncn2-c1ccc(NC(=O)Nc2ccc(CN3CCN(C(C)C)CC3)c(C(F)(F)F)c2)cc1 [Table 3, Compound 28, 1-[4-(4-Isopropyl-piperazin-1-ylmethyl)-3-(trifluoromethyl)phenyl]-3-[4-(6-(methylamino)purin-9-yl)phenyl]urea] | 6.52 | 8.10
